For one experiment, the system named is MUC1 peptide. The experiment can be described thus: MUC1-specific antibody isotype titers in immunized mice (ELISA). It counts as in vivo. As to conditions: five C57BL6 mice, mean titer of responders, sera screened against MUC1 peptide.
In experiment [1] the test system is 51Cr-labeled P815S (HBsAg transfectant) target cells. The experiment can be described thus: HBsAg-specific CTL response of immunized mice (51Cr-release assay). Type of experiment: in vivo, BALB/c mice. To be noted: s.c. in PBS, boost day 21, spleen cells day 42.
The subject of the next experiment is human PMNs. The experiment can be described thus: MPO release from human PMNs. It counts as cell-based. To be noted: for EC50: concentration resulting in 50% maximum release of myeloperoxidase; for pD2 ± SE: −log EC50 (M), mean ± SE, n 3. The protocol:
(§1) Pharmacologic assays. […] Statistical analysis of the values obtained from pharmacologic assays was performed using one-way analysis of variance (ANOVA).

In the next experiment the target is T1, C5aR (Homo sapiens, UniProt P21730).
T1 construct: endogenous in cells; host or cells: intact human PMNs (polymorphonuclear leukocytes)
T1 sequence (P21730 1-350): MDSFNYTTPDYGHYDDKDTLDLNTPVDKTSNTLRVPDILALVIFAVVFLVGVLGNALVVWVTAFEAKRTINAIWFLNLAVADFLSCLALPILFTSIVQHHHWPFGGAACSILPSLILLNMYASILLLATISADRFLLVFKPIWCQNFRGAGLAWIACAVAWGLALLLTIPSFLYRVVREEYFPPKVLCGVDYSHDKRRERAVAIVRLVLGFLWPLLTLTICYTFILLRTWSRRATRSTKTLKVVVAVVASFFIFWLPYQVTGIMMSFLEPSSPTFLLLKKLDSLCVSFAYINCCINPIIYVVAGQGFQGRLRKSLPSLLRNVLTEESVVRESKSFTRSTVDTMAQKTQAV
The experiment can be described thus: Binding affinity for C5aRs on human PMNs (125I-C5a competition). The protocol:
Pharmacologic assays. C5a-like agonistic activity was assessed by the ability of the peptides to induce smooth muscle contraction of human umbilical artery and […] from human PMNs according to previously published methods (Sanderson et al., 1994, supra; Sanderson et al., J. Med. Chem. 38, 3669, 1995; Finch et al., J. Med. Chem. 40, 877, 1997). Full concentration-response curves were generated for individual peptides and natural C5a in each assay and the EC50 values (the concentration of peptide producing 50% of the maximal response to each peptide) were calculated. pD2 transforms [−log EC50 (M)] were calculated for each concentration-response curve and reported as the mean±SE. Peptide binding affinity to the C5aR was evaluated on intact human PMNs by a competition assay using ^125I-C5a according to previously described methods (Sanderson et al., 1995, supra; Finch et al., 1997, supra). Statistical analysis of the values obtained from pharmacologic assays was performed using one-way analysis of variance (ANOVA).

The subject of a further experiment is human umbilical artery. Briefly: Smooth muscle contraction of human umbilical artery. It counts as cell-based. As to conditions: for EC50: concentration resulting in 50% maximum contraction; for pD2 ± SE: −log EC50 (M), mean ± SE, n 3. Here is the method:
as §1

Square brackets hold non-standard residues; d marks the D form. Ends that are not written are not given here. Peptide text beside a SMILES is read from it. A value given as a limit tells only on which side of the number the result lay.

As for “YKQGGFLGL-KLH: MUC1 epitope conjugated to keyhole limpet hemocyanine (KLH) (also: conjugated to KLH) [reference compound]”, in the experiment on MUC1 peptide, the “MUC1 specific Ab titer, IgA” value was determined as 0; the “MUC1 specific Ab titer, IgG1” value is given as 100 (2/5); the “MUC1 specific Ab titer, IgG2a” value was found to be 0; the “MUC1 specific Ab titer, IgG2b” value is recorded as 0. Besides, in the experiment on MUC1 peptide, the “MUC1 specific Ab titer, IgG3” value was determined as 0 and the “MUC1 specific Ab titer, IgM” value is recorded as 5010 (4/5).

For IPQSLDSWWTSLRR, the “% Specific Lysis” value in experiment [1] (Effector:Target Ratio 6.25:1) came out at 0%; in experiment [1] (Effector:Target Ratio 12.5:1), 1%; in experiment [1] (Effector:Target Ratio 25:1) it was 2%; in experiment [1] (Effector:Target Ratio 50:1), 2%.

As for `CC[C@H](C)[C@H](NC(=O)[C@H](CCCNC(=N)N)NC(=O)[C@H](CCCNC(=N)N)NC(=O)[C@H](CCCNC(=N)N)NC(=O)[C@@H](C)NC(=O)[C@H](CC(C)C)NC(=O)[C@@H]1CCCN1C(=O)[C@H](CCSC)NC(=O)[C@@H]1CCCN1C(=O)[C@H](CCCCN)NC(=O)[C@H](Cc1ccccc1)NC(=O)[C@H](CO)NC(=O)[C@@H](N)Cc1ccc(O)cc1)C(=O)N1CCC[C@H]1C(=O)N[C@@H](CCC(N)=O)C(=O)N[C@@H](CO)C(=O)N[C@@H](CC(C)C)C(=O)N[C@@H](CC(=O)O)C(=O)N[C@@H](CO)C(=O)N[C@@H](Cc1c[nH]c2ccccc12)C(=O)N[C@@H](Cc1c[nH]c2ccccc12)C(=O)N[C@H](C(=O)N[C@@H](CO)C(=O)N[C@@H](CC(C)C)C(=O)O)[C@@H](C)O` (H-YSFKPMPL[dA]RRRIPQSLDSWWTSL-OH; N-terminus and C-terminus assumed), in the experiment with human PMNs, the concentration for a half-maximal effect (EC50) is above 1000 µM and the “pD2 ± SE” value is reported as above 3. Further, at C5aR, the EC50 was determined as 465 µM and the IC50 was 468 µM. Besides, in the experiment with human umbilical artery, the EC50 turned out to be 39.4 µM and the “pD2 ± SE” value came to 4.41 ± 0.06.

“IPQSLDSWWTSL [free L^d MHC class I-restricted HBsAg peptide S28-39]”: the “% Specific Lysis” value in experiment [1] (Effector:Target Ratio 6.25:1) is 3%; in experiment [1] (Effector:Target Ratio 12.5:1), 3%; in experiment [1] (Effector:Target Ratio 25:1) it was 5%; in experiment [1] (Effector:Target Ratio 50:1) it was 7%.

Turning to `CC[C@H](C)[C@H](N)C(=O)N1CCC[C@H]1C(=O)N[C@@H](CCC(N)=O)C(=O)N[C@@H](CO)C(=O)N[C@@H](CC(C)C)C(=O)N[C@@H](CC(=O)O)C(=O)N[C@@H](CO)C(=O)N[C@@H](Cc1c[nH]c2ccccc12)C(=O)N[C@@H](Cc1c[nH]c2ccccc12)C(=O)N[C@H](C(=O)N[C@@H](CO)C(=O)N[C@@H](CC(C)C)C(=O)N[C@@H](CCCNC(=N)N)C(=O)N[C@@H](CCCNC(=N)N)C(=O)N[C@@H](Cc1ccc(O)cc1)C(=O)N[C@@H](CO)C(=O)N[C@@H](Cc1ccccc1)C(=O)N[C@@H](CCCCN)C(=O)N1CCC[C@H]1C(=O)N[C@@H](CCSC)C(=O)N1CCC[C@H]1C(=O)N[C@@H](CC(C)C)C(=O)N[C@H](C)C(=O)N[C@@H](CCCNC(=N)N)C(=O)NCC(=O)O)[C@@H](C)O` (H-IPQSLDSWWTSLRRYSFKPMPL[dA]RG-OH; N-terminus and C-terminus assumed), the values for the concentration for a half-maximal effect (EC50) with human PMNs, on C5aR and in the experiment with human umbilical artery were 2.56 µM, 17 µM and 6.78 µM, respectively. Further, the “pD2 ± SE” value was 5.59 ± 0.28 in the experiment with human PMNs and 5.17 ± 0.13 with human umbilical artery. The compound also showed a 50% inhibitory concentration (IC50) on C5aR of 17 µM.

For the origin of these results see patent US20050089524A1, “Compositions and compounds for use as molecular adjuvant for a nicotine vaccine” (priority 2002, published 2005).
